Tests used:
MCF7 = experiment: cells; conditions: Homo sapiens, MCF7, 72 h
Description: Cytotoxicity against human MCF7 cells assessed as cell viability after 72 hrs by MTS assay

cells = conditions: Homo sapiens, Calu-6, 72 h
Description: Cytotoxicity against human Calu6 cells assessed as cell viability after 72 hrs by MTS assay

CSCC[C@H](NC(=O)[C@@H](NC(=O)[C@H](CCCNC(=N)N)NC(=O)[C@H](C)N)[C@@H](C)O)C(=O)N[C@H]1CCCCNC(=O)CC[C@@H](C(=O)N[C@H](C(=O)NCC(=O)NCC(=O)N[C@@H](CCCCN)C(=O)N[C@@H](C)C(=O)N2CCC[C@H]2C(=O)N[C@@H](CCCNC(=N)N)C(=O)N[C@@H](CCCCN)C(=O)N[C@@H](CCC(N)=O)C(=O)N[C@@H](CC(C)C)C(=O)N[C@@H](C)C(N)=O)[C@@H](C)O)NC(=O)[C@H](CCCCN)NC(=O)[C@H](CCCNC(=N)N)NC(=O)[C@H](C)NC(=O)[C@H]([C@@H](C)O)NC1=O
IC50 (MCF7): 157 µM
IC50 (cells): 125 µM

N=C(NCCCNCCCCCCCNCCCNC(=N)NC(=N)NCCC(c1ccccc1)c1ccccc1)NC(=N)NCCC(c1ccccc1)c1ccccc1
IC50 (cells): 10.9 µM

From ChEMBL document CHEMBL3108747, “Synthesis and evaluation of novel cyclic Peptide inhibitors of lysine-specific demethylase 1” (ACS Med Chem Lett, 2014)
